A word on the pIC50: it is the negative decadic logarithm of the IC50, by convention in mol/L. Low readings indicate a high IC50, high ones a low IC50.

pIC50: −log10 of the molar value.

Chain of human full-length MKNK1 (Q9BUB5 other isoform, or with tags, fused parts or gaps T344D): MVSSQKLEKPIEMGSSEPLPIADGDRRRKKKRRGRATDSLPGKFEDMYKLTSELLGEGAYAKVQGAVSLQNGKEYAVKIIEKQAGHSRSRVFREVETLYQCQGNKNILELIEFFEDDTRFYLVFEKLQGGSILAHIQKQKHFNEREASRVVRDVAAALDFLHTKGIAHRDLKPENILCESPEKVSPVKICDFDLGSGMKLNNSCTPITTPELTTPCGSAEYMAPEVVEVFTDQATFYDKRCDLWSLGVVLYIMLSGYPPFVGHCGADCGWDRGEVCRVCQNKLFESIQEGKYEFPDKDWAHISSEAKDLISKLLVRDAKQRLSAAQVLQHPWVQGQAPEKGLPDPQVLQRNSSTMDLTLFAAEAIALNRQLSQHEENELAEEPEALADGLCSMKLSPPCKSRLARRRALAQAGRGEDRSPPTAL

The assay has as its target human full-length MKNK1 (Homo sapiens (Human), UniProt Q9BUB5, T344D). The experiment in a line: MKNK1 kinase high ATP assay (TR-FRET). Format: biochemical. As to conditions: high ATP (2 mM final), 15 min preincubation with enzyme. Put shortly:
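GST-tagged full-length MKNK1 (T344D), insect-cell expressed, preincubated 15 min at 22 °C with compound, then reacted 30 min at 22 °C with 2 mM ATP and 0.06 μM biotinylated peptide in HEPES pH 7.5 buffer (final concentrations). Phospho-peptide detected by TR-FRET (665/620 nm ratio), normalised to no-inhibitor and no-enzyme controls.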
In turn, `O=C(NCC1CCc2c(sc3ncnc(Nc4ccc5[nH]c(=O)sc5c4)c23)C1)[C@@H](O)Cc1ccccc1` (mixture of isomers) [Example 23, (2R)-2-Hydroxy-N-({(7RS)-4-[(2-oxo-2,3-dihydro-1,3-benzothiazol-6-yl)amino]-5,6,7,8-tetrahydro[1]benzothieno[2,3-d]pyrimidin-7-yl}methyl)-3-phenylpropanamide] had a pIC50 of 7.37. Next, `CC(C)(C)OC(=O)N[C@@H](CCO)C(=O)NCC1CCc2c(sc3ncnc(Nc4ccc5[nH]c(=O)sc5c4)c23)C1` (mixture of isomers) [Example 27, tert-Butyl {(2R)-4-hydroxy-1-oxo-1-[({(7RS)-4-[(2-oxo-2,3-dihydro-1,3-benzothiazol-6-yl)amino]-5,6,7,8-tetrahydro[1]benzothieno[2,3-d]pyrimidin-7-yl}methyl)amino]butan-2-yl}carbamate]: 7.00; `O=c1[nH]c2ccc(Nc3ncnc4sc5c(c34)CCC(CO)C5)cc2s1` (racemic) [Example 18, (RS)-6-{[7-(Hydroxymethyl)-5,6,7,8-tetrahydro[1]benzothieno[2,3-d]pyrimidin-4-yl]amino}-1,3-benzothiazol-2(3H)-one]: 7.22.

Molecule `O=C(NCc1cccc(F)c1)C1CCc2c(sc3ncnc(Nc4ccc5[nH]c(=O)sc5c4)c23)C1` (racemic) [Example 14, (RS)—N-(3-Fluorobenzyl)-4-[(2-oxo-2,3-dihydro-1,3-benzothiazol-6-yl)amino]-5,6,7,8-tetrahydro[1]benzothieno[2,3-d]pyrimidine-7-carboxamide] had a pIC50 of 7.60. Consider `O=C(NC1CC1)C1CCc2c(sc3ncnc(Nc4ccc5[nH]c(=O)sc5c4)c23)C1` (racemic) [Example 4, (RS)—N-Cyclopropyl-4-[(2-oxo-2,3-dihydro-1,3-benzothiazol-6-yl)amino]-5,6,7,8-tetrahydro[1]benzothieno[2,3-d]pyrimidine-7-carboxamide], for which the pIC50 is 7.24. Next, `CN(C(=O)C1CCc2c(sc3ncnc(Nc4ccc5[nH]c(=O)sc5c4)c23)C1)C1CCOC(C)(C)C1` (racemic) [Example 80, (RS)-N-(2,2-dimethyltetrahydro-2H-pyran-4-yl)-N-methyl-4-[(2-oxo-2,3-dihydro-1,3-benzothiazol-6-yl)amino]-5,6,7,8-tetrahydro[1]benzothieno[2,3-d]pyrimidine-7-carboxamide]: 7.38; `N#CC1CCN(C(=O)C2CCc3c(sc4ncnc(Nc5ccc6[nH]c(=O)sc6c5)c34)C2)CC1` (racemic) [Example 76, (RS)-1-({4-[(2-oxo-2,3-dihydro-1,3-benzothiazol-6-yl)amino]-5,6,7,8-tetrahydro[1]benzothieno[2,3-d]pyrimidin-7-yl}carbonyl)piperidine-4-carbonitrile]: 7.27; `CC(O)C(=O)NCC1CCc2c(sc3ncnc(Nc4ccc5[nH]c(=O)sc5c4)c23)C1` (racemic) [Example 26, (2RS)-2-Hydroxy-N-({(7RS)-4-[(2-oxo-2,3-dihydro-1,3-benzothiazol-6-yl)amino]-5,6,7,8-tetrahydro[1]benzothieno[2,3-d]pyrimidin-7-yl}methyl)propanamide]: 7.08. Next, `O=C(NCc1cccc(C(F)(F)F)c1)C1CCc2c(sc3ncnc(Nc4ccc5[nH]c(=O)sc5c4)c23)C1` (racemic) [Example 10, (RS)-4-[(2-Oxo-2,3-dihydro-1,3-benzothiazol-6-yl)amino]-N-[3-(trifluoromethyl)benzyl]-5,6,7,8-tetrahydro[1]benzothieno[2,3-d]pyrimidine-7-carboxamide]: 7.96; `CCCN(CCOC)C(=O)C1CCc2c(sc3ncnc(Nc4ccc5[nH]c(=O)sc5c4)c23)C1` (racemic) [Example 69, (RS)-N-(2-methoxyethyl)-4-[(2-oxo-2,3-dihydro-1,3-benzothiazol-6-yl)amino]-N-propyl-5,6,7,8-tetrahydro[1]benzothieno[2,3-d]pyrimidine-7-carboxamide]: 7.72. Consider `CN(C)CCN(C)C(=O)C1CCc2c(sc3ncnc(Nc4ccc5[nH]c(=O)sc5c4)c23)C1` (racemic) [Example 35, (RS)-N-[2-(dimethylamino)ethyl]-N-methyl-4-[(2-oxo-2,3-dihydro-1,3-benzothiazol-6-yl)amino]-5,6,7,8-tetrahydro[1]benzothieno[2,3-d]pyrimidine-7-carboxamide], for which the pIC50 was 7.44.

`CC(C)S(=O)(=O)NCC1CCc2c(sc3ncnc(Nc4ccc5[nH]c(=O)sc5c4)c23)C1` (racemic) [Example 28, (RS)—N-({4-[(2-Oxo-2,3-dihydro-1,3-benzothiazol-6-yl)amino]-5,6,7,8-tetrahydro[1]benzothieno[2,3-d]pyrimidin-7-yl}methyl)propane-2-sulfonamide] had a pIC50 of 6.86. The figure for `CN(C)C(=O)C1CCc2c(sc3ncnc(Nc4ccc5[nH]c(=O)sc5c4)c23)C1` (racemic) [Example 13, (RS)—N,N-Dimethyl-4-[(2-oxo-2,3-dihydro-1,3-benzothiazol-6-yl)amino]-5,6,7,8-tetrahydro[1]benzothieno[2,3-d]pyrimidine-7-carboxamide] is 7.39; for `CCOC(=O)C1CCc2c(sc3ncnc(Nc4cc5sc(=O)[nH]c5cc4OC)c23)C1` (racemic) [Example 30, (RS)-Ethyl 4-[(5-methoxy-2-oxo-2,3-dihydro-1,3-benzothiazol-6-yl)amino]-5,6,7,8-tetrahydro[1]benzothieno[2,3-d]pyrimidine-7-carboxylate] it is 7.82. `[N-]=[N+]=NCC1CCc2c(sc3ncnc(Nc4ccc5[nH]c(=O)sc5c4)c23)C1` (racemic) [Example 19, (RS)-6-{[7-(Azidomethyl)-5,6,7,8-tetrahydro[1]benzothieno[2,3-d]pyrimidin-4-yl]amino}-1,3-benzothiazol-2(3H)-one] gave a pIC50 of 7.03. The figure for `COCC1CCCN1C(=O)C1CCc2c(sc3ncnc(Nc4ccc5[nH]c(=O)sc5c4)c23)C1` (racemic) [Example 77, 6-{[(7RS)-7-{[(2RS)-2-(methoxymethyl)pyrrolidin-1-yl]carbonyl}-5,6,7,8-tetrahydro[1]benzothieno[2,3-d]pyrimidin-4-yl]amino}-1,3-benzothiazol-2(3H)-one] is 7.39; for `CC(C)CN(C)C(=O)C1CCc2c(sc3ncnc(Nc4ccc5[nH]c(=O)sc5c4)c23)C1` (racemic) [Example 58, (RS)-N-isobutyl-N-methyl-4-[(2-oxo-2,3-dihydro-1,3-benzothiazol-6-yl)amino]-5,6,7,8-tetrahydro[1]benzothieno[2,3-d]pyrimidine-7-carboxamide] it is 7.20.

In turn, `COc1ccc(N(C)C(=O)C2CCc3c(sc4ncnc(Nc5ccc6[nH]c(=O)sc6c5)c34)C2)cc1` (racemic) [Example 42, (RS)-N-(4-methoxyphenyl)-N-methyl-4-[(2-oxo-2,3-dihydro-1,3-benzothiazol-6-yl)amino]-5,6,7,8-tetrahydro[1]benzothieno[2,3-d]pyrimidine-7-carboxamide] showed a pIC50 of 7.33. The figure for `CCN1CCN(C(=O)C2CCc3c(sc4ncnc(Nc5ccc6[nH]c(=O)sc6c5)c34)C2)CC1` (racemic) [Example 60, (RS)-6-({7-[(4-ethylpiperazin-1-yl)carbonyl]-5,6,7,8-tetrahydro[1]benzothieno[2,3-d]pyrimidin-4-yl}amino)-1,3-benzothiazol-2(3H)-one] is 7.44; for `O=C(CN1CCN(C(=O)C2CCc3c(sc4ncnc(Nc5ccc6[nH]c(=O)sc6c5)c34)C2)CC1)N1CCCC1` (racemic) [Example 43, (RS)-6-{[7-({4-[2-oxo-2-(pyrrolidin-1-yl)ethyl]piperazin-1-yl}carbonyl)-5,6,7,8-tetrahydro[1]benzothieno[2,3-d]pyrimidin-4-yl]amino}-1,3-benzothiazol-2(3H)-one] it is 7.16; for `CC(C)CNC(=O)C1CCc2c(sc3ncnc(Nc4ccc5[nH]c(=O)sc5c4)c23)C1` (racemic) [Example 6, (RS)—N-Isobutyl-4-[(2-oxo-2,3-dihydro-1,3-benzothiazol-6-yl)amino]-5,6,7,8-tetrahydro[1]benzothieno[2,3-d]pyrimidine-7-carboxamide] it is 7.40.

For the molecule `N[C@@H](CCO)C(=O)NCC1CCc2c(sc3ncnc(Nc4ccc5[nH]c(=O)sc5c4)c23)C1` (mixture of isomers) [Example 32, N-({4-[(2-Oxo-2,3-dihydro-1,3-benzothiazol-6-yl)amino]-5,6,7,8-tetrahydro[1]benzothieno[2,3-d]pyrimidin-7-(RS)-yl}methyl)-L-homoserinamide], the pIC50 was 7.04. With `CCOC(=O)C1CCc2c(sc3ncnc(Nc4ccc5[nH]c(=O)sc5c4)c23)C1` (racemic) [Example 1, (RS)-Ethyl 4-[(2-oxo-2,3-dihydro-1,3-benzothiazol-6-yl)amino]-5,6,7,8-tetrahydro[1]benzothieno[2,3-d]pyrimidine-7-carboxylate], the pIC50 is 7.33.

Molecule `CN1CCN(C(=O)C2CCc3c(sc4ncnc(Nc5ccc6[nH]c(=O)sc6c5)c34)C2)CC1CCO` (racemic) [Example 81, 6-{[(7RS)-7-{[(3RS)-3-(2-hydroxyethyl)-4-methylpiperazin-1-yl]carbonyl}-5,6,7,8-tetrahydro[1]benzothieno[2,3-d]pyrimidin-4-yl]amino}-1,3-benzothiazol-2(3H)-one] had a pIC50 of 7.47. As for `O=C(O)C1CCc2c(sc3ncnc(Nc4ccc5[nH]c(=O)sc5c4)c23)C1` (racemic) [Example 2, (RS)-4-[(2-Oxo-2,3-dihydro-1,3-benzothiazol-6-yl)amino]-5,6,7,8-tetrahydro[1]benzothieno[2,3-d]pyrimidine-7-carboxylic acid], the pIC50 was 6.97.

`CCN(CCC#N)C(=O)C1CCc2c(sc3ncnc(Nc4ccc5[nH]c(=O)sc5c4)c23)C1` (racemic) [Example 63, (RS)-N-(2-cyanoethyl)-N-ethyl-4-[(2-oxo-2,3-dihydro-1,3-benzothiazol-6-yl)amino]-5,6,7,8-tetrahydro[1]benzothieno[2,3-d]pyrimidine-7-carboxamide] showed a pIC50 of 7.42.

Source of the values: patent publication US9296757B2, “Substituted benzothienopyrimidines” (BAYER PHARMA AKTIENGESELLSCHAFT, priority 2012, dated 2016).
